# Data reported in US10392373B2, “Oxazole derivatives that inhibit Syk” (AB Science, priority 2015, dated 2019).
# Molecular target: T1, SYK kinase (Homo sapiens, UniProt P43405)
# T1 construct: SYK kinase was purified as a full length protein in a baculovirus system near homogeneity; made in house
# Experiment: In vitro Syk inhibition assay (Kinase TK HTRF, Cisbio)
# Type: biochemical
# Conditions: full length SYK purified from a baculovirus system; ATP at least twice the Km; room temperature; average of triplicate; read-out: IC50: Concentration inhibiting 50% of protein kinase
# Procedure: Protocol Inhibition Assays.
# SYK kinase was purified as a full length protein in a baculovirus system near homogeneity. All kinase assays were performed with the Kinase TK (tyrosine kinase) HTRF (Homogeneous Time Resolved Fluorescence) assay developed by Cisbio international. These assays were carried out at room temperature in 96-wells half-area white plates in a final volume of 25 μl of kinase buffer (10 mM MgCl2; 2 mM MnCl2; 50 mM Sodium-HEPES pH 7.8; BRIJ-35 0.01%, 1 μM substrate) containing ATP at a concentration of at least twice the Km for each enzyme and an appropriate amount of recombinant enzyme to ensure a linear reaction rate. Reactions were initiated upon introduction of the enzyme and terminated with the addition of one reaction volume (25 μl) of HTRF detection buffer. Plates were incubated for one hour at room temperature and the time resolved Fluorescence resonance energy transfer signal was measured in a Pherastar FS microplate reader (BMG Labtech). All data are the average of triplicate results with a standard deviation <10%.
row,Structure (SMILES),IC50
1,"CCCc1cnc(Nc2cccc(-c3cnc(N4CCNC(=O)C4C)o3)c2)nc1 (stereo not drawn) [Compound 006, 3-Methyl-4-{5-[3-(5-propyl-pyrimidin-2-ylamino)-phenyl]-oxazol-2-yl}-piperazin-2-one]",1000 to 10000 nM
2,"Cc1ccnc(Nc2cccc(-c3cnc(N4CCNC(=O)C4CCO)o3)c2)n1 (stereo not drawn) [Compound 024, 3-(2-Hydroxy-ethyl)-4-{5-[3-(4-methyl-pyrimidin-2-ylamino)-phenyl]-oxazol-2-yl}-piperazin-2-one]",100 to 1000 nM
3,"CC1(C)C(=O)NCCN1c1ncc(-c2cccc(Nc3nccc(N4CCOCC4)n3)c2)o1 [Compound 030, 3,3-Dimethyl-4-{5-[3-(4-morpholin-4-yl-pyrimidin-2-ylamino)-phenyl]-oxazol-2-yl}-piperazin-2-one]",100 to 1000 nM
4,"CCc1cnc(Nc2cccc(-c3cnc(N4CCNC(=O)C4C)o3)c2)nc1 (stereo not drawn) [Compound 016, 4-{5-[3-(5-Ethyl-pyrimidin-2-ylamino)-phenyl]-oxazol-2-yl}-3-methyl-piperazin-2-one]",1000 to 10000 nM
5,"CN1CCN(c2ccnc(Nc3cccc(-c4cnc(N5CCNC(=O)C5(C)C)o4)c3)n2)CC1 [Compound 031, 3,3-Dimethyl-4-(5-{3-[4-(4-methyl-piperazin-1-yl)-pyrimidin-2-ylamino]-phenyl}-oxazol-2-yl)-piperazin-2-one]",1000 to 10000 nM
6,"Cc1ccnc(Nc2cc(CN3CCCC3)cc(-c3cnc(N4CCNC(=O)C4(C)C)o3)c2)n1 [Compound 045, 3,3-Dimethyl-4-{5-[3-(4-methyl-pyrimidin-2-ylamino)-5-pyrrolidin-1-ylmethyl-phenyl]-oxazol-2-yl}-piperazin-2-one]",100 to 1000 nM

# Results, then the compound that gave them:
row,IC50,Structure (SMILES)
1,≤ 100 nM,"COc1ccnc(Nc2cccc(-c3cnc(N4CCNC(=O)C4C)o3)c2)n1 (stereo not drawn) [Compound 013, 4-{5-[3-(4-Methoxy-pyrimidin-2-ylamino)-phenyl]-oxazol-2-yl}-3-methyl-piperazin-2-one]"
2,≤ 100 nM,"Cc1ccnc(Nc2cccc(-c3cnc(N4CCNC(=O)C4(C)C)o3)c2)n1 [Compound 002, 3,3-Dimethyl-4-{5-[3-(4-methyl-pyrimidin-2-ylamino)-phenyl]-oxazol-2-yl}-piperazin-2-one]"
3,≤ 100 nM,"CCC1C(=O)NCCN1c1ncc(-c2cccc(Nc3nccc(C)n3)c2)o1 (stereo not drawn) [Compound 020, 3-Ethyl-4-{5-[3-(4-methyl-pyrimidin-2-ylamino)-phenyl]-oxazol-2-yl}-piperazin-2-one]"
4,≤ 100 nM,"CC(C)c1ccnc(Nc2cccc(-c3cnc(N4CCNC(=O)C4(C)C)o3)c2)n1 [Compound 023, 4-{5-[3-(4-Isopropyl-pyrimidin-2-ylamino)-phenyl]-oxazol-2-yl}-3,3-dimethyl-piperazin-2-one]"
5,≤ 100 nM,"CC1C(=O)NCCN1c1ncc(-c2cc(CN3CCOCC3)cc(Nc3nccc(C#N)n3)c2)o1 (stereo not drawn) [Compound 008, 2-{3-[2-(2-Methyl-3-oxo-piperazin-1-yl)-oxazol-5-yl]-5-(morpholin-4-ylmethyl)-phenylamino}-pyrimidine-4-carbonitrile]"
6,≤ 100 nM,"CC(C)C1C(=O)NCCN1c1ncc(-c2cccc(Nc3nccc(C(F)(F)F)n3)c2)o1 (stereo not drawn) [Compound 012, 3-Isopropyl-4-{5-[3-((4-trifluoromethyl)-pyrimidin-2-ylamino)-phenyl]-oxazol-2-yl}-piperazin-2-one]"
7,≤ 100 nM,"CC1C(=O)NCCN1c1ncc(-c2cc(CN3CCOCC3)cc(Nc3nccc(C(F)(F)F)n3)c2)o1 (stereo not drawn) [Compound 015, 3-Methyl-4-{5-[3-morpholin-4-ylmethyl-5-((4-trifluoromethyl)-pyrimidin-2-ylamino)-phenyl]-oxazol-2-yl}-piperazin-2-one]"
8,≤ 100 nM,"CCc1ccnc(Nc2cccc(-c3cnc(N4CCNC(=O)C4C)o3)c2)n1 (stereo not drawn) [Compound 004, 4-{5-[3-(4-Ethyl-pyrimidin-2-ylamino)-phenyl]-oxazol-2-yl}-3-methyl-piperazin-2-one]"
9,≤ 100 nM,"Cc1ccnc(Nc2cccc(-c3cnc(N4CCNC(=O)[C@@H]4C)o3)c2)n1 [Compound 019, (S)-3-Methyl-4-{5-[3-(4-methyl-pyrimidin-2-ylamino)-phenyl]-oxazol-2-yl}-piperazin-2-one]"
